Assay results published in patent publication US11168087B2, “Substituted imidazo[1,2-b]pyridazines, substituted imidazo[1,5-b]pyridazines, related compounds, and their use in the treatment of medical disorders” (BIAL—R&D Investments, S.A., priority 2016, dated 2021).

Target: T1, glucocerebrosidase (Gcase) (Homo sapiens, UniProt P04062)
T1 construct: micellar solution containing 10 nM GCase and 100 nM saposin C
T1 sequence (P04062 40-536): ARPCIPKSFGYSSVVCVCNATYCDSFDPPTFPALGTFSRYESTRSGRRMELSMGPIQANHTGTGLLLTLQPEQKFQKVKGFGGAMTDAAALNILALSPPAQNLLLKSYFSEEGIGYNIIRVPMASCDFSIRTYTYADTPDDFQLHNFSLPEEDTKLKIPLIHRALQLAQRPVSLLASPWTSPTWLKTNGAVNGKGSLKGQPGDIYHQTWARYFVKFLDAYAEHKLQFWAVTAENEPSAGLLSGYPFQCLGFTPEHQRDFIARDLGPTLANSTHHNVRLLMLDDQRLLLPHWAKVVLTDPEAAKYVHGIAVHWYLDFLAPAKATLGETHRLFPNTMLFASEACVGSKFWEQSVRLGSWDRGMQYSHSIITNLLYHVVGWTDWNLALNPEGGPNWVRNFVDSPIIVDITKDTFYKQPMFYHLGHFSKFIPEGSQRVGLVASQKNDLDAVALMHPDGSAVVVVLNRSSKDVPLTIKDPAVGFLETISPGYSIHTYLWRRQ
Experiment: Glucocerebrosidase (Gcase) activation assay, 4-methylumbelliferyl-beta-D-glucopyranoside substrate, with saposin C
Type: biochemical
Settings: 0.25 h; for activation at 0.1 µM: read-out: Percent Gcase Activation 0.1 μM Test Compound; for activation at 1 µM: read-out: Percent Gcase Activation 1 μM Test Compound
Protocol: The ability of exemplary compounds to activate glucocerebrosidase (Gcase) was measured.
A 484 μL aliquot of a 1.0 mg/mL solution of phosphatidylserine (PS) (Sigma P7769) in chloroform was evaporated under a stream of nitrogen for 1 hour. The lipid film was dissolved over 4 minutes of vigorous vortexing in 40 mL of 176 mM K2HPO4/50 mM citric acid (pH 4.7) containing 7.5 μL of triton X-100, resulting in a mixed micellar preparation with a composition of 0.32 mM triton and 0.37 mol % PS. 4-Methylumbelliferyl-beta-D-glucopyranoside (ACROS-337025000) was dissolved in the micellar solution to a final concentration of 2 mM for use as the reaction substrate.
Test compounds were diluted to the desired concentrations with dimethylsulfoxide (DMSO) from 10 mM stocks, and 0.41 μL of the DMSO compound mixture was added to 100 μL of micellar solution containing 10 nM GCase and 100 nM saposin C (Enzo ALX-201-262-C050). Pre-incubation was allowed to occur for 30 minutes at room temperature, after which the reaction was initiated by combining 25 μL of substrate solution with 25 μL of compound/GCase/saposin mixture. The reaction proceeded for 15 minutes at room temperature and was stopped by adding 150 μL of 1M glycine, pH 12.5. The endpoint of the reaction was monitored by measuring fluorescence intensity (excitation: 365 nm; emission: 440 nm) on a SpectraMax i3 instrument (Molecular Devices). Test compounds were screened at 1.0 and 0.1 μM final concentration, and subsequent 8-point dose response curves were obtained using 3-fold dilutions from a maximum final concentration of 5 μM.
The symbol “+” indicates less than 5% Gcase activation; the symbol “++” indicates Gcase activation in the range of 5% up to 20%; and the symbol “+++” indicates Gcase activation greater than 20%.

| Structure (SMILES) | activation at 0.1 µM [%] | activation at 1 µM [%] |
| --- | --- | --- |
| Cc1cc(-c2ccc3ocnc3c2)nn2c(C(=O)NC(C)C(F)(F)F)cnc12 (stereo not shown) | > 20 | > 20 |
| Cc1cc(C)c2cnc(C(=O)Nc3ccc4c(c3)CCC4)n2n1 | > 20 | > 20 |
| Cc1cc(-c2cccc(F)c2)nn2c(C(=O)NC(C3CC3)C(F)(F)F)cnc12 (stereo not shown) | > 20 | > 20 |
| Cc1cc(-c2cccc(F)c2)nn2c(C(=O)NC(C)C(F)(F)F)cnc12 (stereo not shown) | 5 to 20 | > 20 |
| Cc1cncc(-c2cc(C)c3ncc(C(=O)N[C@@H](C4CC4)C(F)(F)F)n3n2)c1 | < 5 | > 20 |
| CCCCCO[C@H]1CC[C@H](NC(=O)c2cnc3ccc(Cl)nn23)CC1 | < 5 | 5 to 20 |
| Cc1cc(-c2ccc3ocnc3c2)nn2c(C(=O)N[C@H](C3CC3)C(F)(F)F)cnc12 | > 20 | > 20 |
| Cc1cc(-c2cccnc2)nc2c(C(=O)NC(C)C3CC3)csc12 (stereo not shown) | > 20 | > 20 |
| Cc1cc(N2CCC(F)(F)C2)nn2c(C(=O)NC(C3CC3)C(F)(F)F)cnc12 (stereo not shown) | > 20 | > 20 |
| Cc1cc(N2CCCC(F)(F)C2)nn2c(C(=O)N[C@@H](C3CC3)C(F)(F)F)cnc12 | > 20 | > 20 |
| CCCCCO[C@H]1CC[C@H](NC(=O)c2coc3c(C)cc(C)nc23)CC1 [5,7-Dimethyl-N-((1R,4R)-4-(pentyloxy)cyclohexyl)furo[3,2-b]pyridine-3-carboxamide] | 5 to 20 | > 20 |
| Cc1cc(-c2occc2C#N)nn2c(C(=O)NC(C3CC3)C(F)(F)F)cnc12 (stereo not shown) | > 20 | > 20 |
| Cc1cc(-c2ccc3ocnc3c2)nn2c(C(=O)N[C@@H](C3CC3)C(F)(F)F)cnc12 | > 20 | > 20 |
| Cc1cc(-c2cc(C)c3ncc(C(=O)N[C@H](C4CC4)C(F)(F)F)n3n2)sn1 | > 20 | > 20 |
| Cc1cc(C)c2cnc(C(=O)N[C@@H](C)C3CC3)n2n1 | < 5 | 5 to 20 |
| Cc1cc(C#N)c(-c2cc(C)c3ncc(C(=O)N[C@@H](C)C4CC4)n3n2)o1 [(S)-6-(3-Cyano-5-methylfuran-2-yl)-N-(1-cyclopropylethyl)-8-methylimidazo[1,2-b]pyridazine-3-carboxamide] | > 20 | > 20 |
| Cc1cc(-c2ccc3ocnc3c2)nn2c(C(=O)NC(C)C3CC3)cnc12 (stereo not shown) | > 20 | > 20 |
| Cc1cc(C)c2cnc(C(=O)NC3CCCc4ccccc43)n2n1 (stereo not shown) | 5 to 20 | > 20 |
| Cc1cc(N2CC(C(C)C)OC2=O)nn2c(C(=O)N[C@@H](C3CC3)C(F)(F)F)cnc12 (stereo partly drawn) [N—((S)-1-Cyclopropyl-2,2,2-trifluoroethyl)-6-(5-isopropyl-2-oxooxazolidin-3-yl)-8-methylimidazo[1,2-b]pyridazine-3-carboxamide] | < 5 | > 20 |
| Cc1cc(-c2ccc(F)cc2)nn2c(C(=O)NC(C)C(F)(F)F)ncc12 (stereo not shown) | 5 to 20 | > 20 |
| Cc1cc(C)c2onc(C(=O)Nc3ccc4c(c3)CCC4)c2n1 [N-(2,3-Dihydro-1H-inden-5-yl)-5,7-dimethylisoxazolo[4,5-b]pyridine-3-carboxamide] | 5 to 20 | > 20 |
| Cc1cc(-c2cccnc2)nc2c(C(=O)NC(C3CC3)C(F)(F)F)csc12 (stereo not shown) | > 20 | > 20 |
| Cc1cc(-c2ccc(F)cc2C#N)nn2c(C(=O)N[C@@H](C)C3CC3)ncc12 [(S)-2-(2-Cyano-4-fluorophenyl)-N-(1-cyclopropylethyl)-4-methylimidazo[1,5-b]pyridazine-7-carboxamide] | 5 to 20 | > 20 |
